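Assay format: 96-well plates, 48-hour exposure. GI50 marks 50% less growth. TGI is the concentration that stops growth completely.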
Assays:
Assay in all cases: growth of human tumour cells (NCI), 48 h
[1] = test system: NCI-H226 lung
[2] = test system: LOX IMVI melanoma
[3] = test system: NCI/ADR-RES ovarian
[4] = test system: MDA-MB-231 breast
[5] = test system: SR leukemia
[6] = test system: SNB-19 CNS
[7] = test system: SF-268 CNS
[8] = test system: OVCAR-5 ovarian
[9] = test system: HCT-116 colon
[10] = test system: PC-3 prostate
[11] = test system: CAKI-1 renal
[12] = test system: KM12 colon
[13] = test system: A498 renal
[14] = test system: CCRF-CEM leukemia
[15] = test system: HS 578T breast

| SMILES | TGI [1] | TGI [2] | TGI [3] | TGI [4] | TGI [5] | TGI [6] | TGI [7] | TGI [8] | TGI [9] | TGI [10] | TGI [11] | TGI [12] | TGI [13] | TGI [14] | TGI [15] | GI50 [1] | GI50 [7] | GI50 [9] |
| --- | --- | --- | --- | --- | --- | --- | --- | --- | --- | --- | --- | --- | --- | --- | --- | --- | --- | --- |
| CC(C)(CO)NC(=O)c1cccc(C(=O)NC(C)(C)CO)c1Br | > 100 µM | > 100 µM | > 100 µM | > 100 µM | > 100 µM | > 100 µM | > 100 µM | > 100 µM | > 100 µM | > 100 µM | > 100 µM | > 100 µM |  |  |  |  |  |  |
| [N-]=[N+]=NC(c1cn(C2CC(O)C(CO)O2)c(=O)[nH]c1=O)C(I)I (stereo not drawn) | > 100 µM | > 100 µM |  |  | > 100 µM | > 100 µM | > 100 µM | > 100 µM | > 100 µM |  | > 100 µM | > 100 µM | > 100 µM | > 100 µM |  |  |  |  |
| CC1(C)CC(=O)C2=C(C1)N(c1ccccc1)C1(O)C=CC(=O)C3=C(O)c4ccccc4C(=O)C321 (stereo not drawn) | 42.4 µM | 56.3 µM | > 100 µM | > 100 µM | 56.4 µM | 54.5 µM | 52.1 µM | > 100 µM | > 100 µM | 63.5 µM | 86 µM | 86.3 µM |  | > 100 µM |  |  |  |  |
| CCCCCCCCC[C@@H]1C[C@@H]2CCC3C(C(=O)OCCCCNC(=O)OCc4ccccc4)=C(C)NC(=N1)N32 (stereo partly drawn) | 11.6 µM | 4.31 µM | 7 µM | 6.09 µM |  | 29.4 µM | 6.66 µM | 21.4 µM | 10 µM | 7.32 µM | 14.9 µM | 13.7 µM | 18.9 µM | 8.93 µM | 5.48 µM |  |  |  |
| COc1ccc2c(c1)Cc1c-2[nH]c2cc3c(cc2c1=O)OCO3 | 94.3 µM | 34.2 µM |  |  |  | > 100 µM | > 100 µM |  | 23.2 µM |  | > 100 µM | 38.3 µM |  | 39.1 µM |  |  |  |  |
| O=c1cc(-c2ccc[nH]2)[nH]c2cc3c(cc12)OCO3 | > 100 µM | > 100 µM |  |  | > 100 µM | > 100 µM | > 100 µM |  | > 100 µM |  |  |  | 74.3 µM | > 100 µM |  | 35.3 µM | > 100 µM | 29.4 µM |
| CC[S+](C)c1ccc(-c2c3nc(c(-c4ccc([S+](C)CC)cc4)c4ccc([nH]4)c(-c4ccc([S+](C)CC)cc4)c4nc(c(-c5ccc([S+](C)CC)cc5)c5ccc2[nH]5)C=C4)C=C3)cc1 (stereo not drawn) |  | 23.3 µM |  |  | 87.5 µM | > 100 µM | > 100 µM | 65.8 µM | > 100 µM |  | > 100 µM | > 100 µM | > 100 µM | > 100 µM |  |  |  |  |
| Cc1cc(C)c(N)c(C)c1N |  | > 100 µM |  |  | > 100 µM | > 100 µM | > 100 µM | > 100 µM | > 100 µM |  |  | > 100 µM | > 100 µM | > 100 µM |  |  |  |  |

Reference: PubChem BioAssay (NCI)
